What all share (test): DTP human tumour cell line panel, 48 h
The test system of test [1] is M14 melanoma.
Test [2] deals with MALME-3M melanoma.
Test [3] relates to SF-268 CNS.
The test system of test [4] is SF-539 CNS.
The subject of test [5] is SN12C renal.
Test [6] has as its system HT29 colon.
Test [7] concerns A498 renal.
The test system of test [8] is KM12 colon.
For test [9], the system named is SR leukemia.
Test [10] concerns HOP-62 NSCLC.

“And” between values parts separate entries of the source, which are not always exact repeats. Identical values can stand only once.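 Growth conditions: 96-well plates. Treatment: test compound, 48 hours, 5 concentrations. Analysis: linear interpolation between bracketing concentrations; unreached endpoints set to highest concentration. GI50 is the concentration that inhibits growth by half. TGI: total growth inhibition.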 Some results are limits rather than exact numbers.

By TGI is commonly meant the concentration at which net growth stops. For `CC(C)=CCC/C(C)=C/CC/C(C)=C/[C@@H]1[C@@H](CO)[C@]1(C)CC/C=C(\C)CCC=C(C)C`, the TGI is more than 100 µM in [1]; more than 100 µM in [2]; 40.8 µM in test [3]; 59 µM in test [4]; more than 100 µM in test [5]; more than 100 µM in test [6]. Besides, the TGI in test [7] is more than 100 µM; in test [8] it was more than 100 µM; in test [9] it was 55 µM; in [10] it was more than 100 µM.
`CCCCCCOC(=O)C(N)Cc1ccc(OC)cc1` (stereo unspecified): the TGI in test [1], in test [2], in test [3], in test [4], in test [5] and in [6] was more than 100 µM each time. In addition, the TGI in [8], in test [9] and in test [10] was more than 100 µM in each case.
In the case of `CC1=NN(c2cccc(Cl)c2)C(=N/c2nc3ccccc3s2)/C1=C\C=C\c1ccccc1`, the TGI in test [1] was more than 100 µM; in test [3] it was more than 100 µM; in test [4], more than 100 µM; in [6], more than 100 µM; in test [7] it was 75.5 µM; in test [8] it was more than 100 µM. Moreover, the TGI in test [9] was 25.9 µM; in test [10] it was more than 100 µM.
Consider `COC1OC(C(=O)CP(=O)(OC)OC)C(OCc2ccccc2)C(OCc2ccccc2)C1OCc1ccccc1` (stereo unspecified), for which the TGI is 28.8 µM and 30.4 µM in test [1]; 32.4 µM and 34.5 µM in test [2]; 37.9 µM and 33.5 µM in test [3]; 33 µM and 31.9 µM in test [4]; 30.1 µM and 30 µM in [5]; 30.6 µM and 31.7 µM in [6]. Further, the TGI in test [7] was 27.1 µM; in test [8] it was 36.6 µM and 35.7 µM; in [9], 39.1 µM and 65.7 µM; in [10], 32 µM and 32.5 µM.
For orientation: GI50 means the concentration that inhibits growth by half. In the case of `Cc1cc(N2CCOCC2)nc(N(CCCNc2ccnc3cc(Cl)ccc23)Cc2ccc3c(c2)OCO3)n1`, the GI50 in test [1] is 1.4 µM; in test [6], 1.34 µM; in [7] it was 1.51 µM; in test [9], 0.186 µM. Besides, the TGI in [1] is 2.73 µM; in [6], 2.8 µM; in [7], 3.42 µM; in test [9] it was 0.593 µM.
Take `CCOc1cc(NC(C)=O)ccc1C(=O)N/N=C/c1ccco1`: the TGI in test [2], in test [3], in test [4], in [5], in test [6] and in test [7] was more than 100 µM in each case. Also, the TGI in test [8] is more than 100 µM; in test [9], 31.3 µM; in test [10], more than 100 µM.
With `COC(=O)c1c(O)ccc2c1c1c(n2Cc2ccccn2)C(=O)c2ccccc2C1`, the TGI in [1], in [2], in test [3], in test [4], in [5] and in [6] was more than 100 µM in each case. Further, the TGI in test [7], in [8], in test [9] and in [10] was more than 100 µM in each case.
For the compound `NC(CCc1ccccc1)(C(=O)O)c1ccccc1` (stereo unspecified), the total growth inhibition concentration (TGI) in test [1], in [2], in test [3], in test [5], in test [6] and in test [7] was more than 100 µM in each case. In addition, the TGI in test [8], in test [9] and in [10] was more than 100 µM throughout.
Take `COc1cc(S(=O)(=O)N/N=C/C=C/c2ccccc2)c(OC)cc1NC(C)=O`: the TGI in test [1] was more than 100 µM; in test [2] it was more than 100 µM; in [3] it was more than 100 µM; in [4], 81.7 µM; in test [5], more than 100 µM; in test [6], more than 100 µM. Moreover, the TGI in test [7], in test [8], in [9] and in test [10] was more than 100 µM in each case.
Regarding `CC(C)(C)OC(=O)N1C(C2=COc3ccccc3O2)=COc2cccnc21`, the TGI in [1] was 3.65 µM; in test [2], 2.76 µM; in test [3], 3.93 µM; in test [4], 4.01 µM; in [5], 3.37 µM; in test [6] it was 5.8 µM. Moreover, the TGI in [7] turned out to be 3.32 µM; in test [8] it was 3.97 µM; in test [9] it was 5.9 µM; in test [10], 3.5 µM.
For the compound `CN(C)C/C=C(/c1ccc(Br)cc1)c1cccnc1`, the TGI in [1] was 37.2 µM; in [2], 44.1 µM; in [3], more than 100 µM; in [4], more than 100 µM; in test [5], more than 100 µM; in test [6], more than 100 µM. Also, the TGI was 57.8 µM in [7], more than 100 µM in test [8], more than 100 µM in test [9] and more than 100 µM in [10].
On to `COc1cccc(/C=N/[N-]C(N)=O)c1[O-].[Cu+2].[OH3+].c1cnc2c(c1)ccc1cccnc12`, for which the TGI in test [1] is 28.8 µM; in test [2] it was 33.3 µM; in test [3], 60.7 µM; in [4], 21.6 µM; in [5] it was more than 100 µM; in test [6] it was 75.5 µM. Further, the TGI in [7] is 21.8 µM; in [8], 47.1 µM; in [9], more than 100 µM; in test [10] it was 36 µM.
As to `O=S1c2ccccc2N=C(c2ccc3ccccc3c2)CC1c1ccccc1` (stereo unspecified), the TGI in test [1] was more than 100 µM; in test [3], 37.2 µM; in [4], 37.7 µM; in test [5], 73.9 µM; in test [6], 35.1 µM; in [7] it was 35.9 µM. The TGI in test [8] was 28.8 µM; in [9], 63.8 µM; in [10], more than 100 µM.
Turning to `CCOC(=O)C(C)OC(=O)c1ccc(C)cc1` (stereo unspecified), the TGI in test [1], in test [2], in test [3], in [4], in test [5] and in test [6] was more than 100 µM each time. For the same compound, the TGI in [7], in [8] and in [9] was more than 100 µM each time.
